From BigSolDB 2.1

SMILES: O=C(O)CCC(=O)C(=O)O
- solubility (mole fraction) (in ethyl acetate, 278.15 K): 0.0358
- solubility (mole fraction) (in ethyl acetate, 280.15 K): 0.0374
- solubility (mole fraction) (in ethyl acetate, 282.15 K): 0.0392
- solubility (mole fraction) (in ethyl acetate, 284.15 K): 0.0418
- solubility (mole fraction) (in ethyl acetate, 286.15 K): 0.0455
- solubility (mole fraction) (in ethyl acetate, 288.15 K): 0.0494
- solubility (mole fraction) (in ethyl acetate, 293.15 K): 0.0603
- solubility (mole fraction) (in n-butyl acetate, 278.15 K): 0.0261
- solubility (mole fraction) (in n-butyl acetate, 280.15 K): 0.0284
- solubility (mole fraction) (in n-butyl acetate, 282.15 K): 0.0303
- solubility (mole fraction) (in n-butyl acetate, 284.15 K): 0.0337
- solubility (mole fraction) (in n-butyl acetate, 286.15 K): 0.0363
- solubility (mole fraction) (in n-butyl acetate, 288.15 K): 0.0391
- solubility (mole fraction) (in n-butyl acetate, 293.15 K): 0.0466
- solubility (mole fraction) (in water, 278.15 K): 0.11
- solubility (mole fraction) (in water, 280.15 K): 0.114
- solubility (mole fraction) (in water, 282.15 K): 0.12
- solubility (mole fraction) (in water, 284.15 K): 0.128
- solubility (mole fraction) (in water, 286.15 K): 0.135
- solubility (mole fraction) (in water, 288.15 K): 0.146
- solubility (mole fraction) (in water, 293.15 K): 0.168
